The structures appear in SMILES notation. pIC50: −log10 of the molar value.

The nature of series [1]: Maximum absorbance and emission wavelengths of the seminaphthofluorophore scaffolds. Format: physicochemical. The following applies: seminaphthofluorophore scaffold (without the diselenide moiety/moieties) of the compound; 10% DMSO, 100 mM phosphate buffer, pH 7.4.
Method: Initial absorbance measurements were performed on a Cary Eclipse™ 50 Bio UV-Vis spectrophotometer. Fluorescence measurements were performed on a Cary Eclipse™ fluorescence spectrophotometer (Agilent Technologies, Santa Clara, CA).
The nature of series [2]: Turn-on response of probe on reduction of the diselenide with dithiothreitol (DTT). The following applies: 10 μM probe. The protocol: To determine if determine if probe 1 would elicit a turn-on response, dithiothreitol (DTT) was used to reduce the diselenide into the selenolate. DTT is known to reduce both disulfides and diselenides. Excitation and emission spectra were obtained for a 10 μM solution of 1 in 0.3% DMSO, 0.2% NP-40 (nonyl phenoxypolyethoxylethanol), 1 mM EDTA, and 50 mM Tris buffer, pH 7.4, initially without DTT and then with an equimolar amount of DTT (FIG. 1).
To investigate the reactivity and optical responses of probe 1, an aqueous solution of 10 μM probe 1, 10 μM DTT in 0.3% DMSO, 0.2% NP-40, 1 mM EDTA and 50 mM Tris buffer, pH 7.4 was prepared. DTT is a powerful reducing agent for both diselenides and disulfides and might be expected to react with probe 1 by a mechanism similar to the TrxR1 enzyme. […] Excitation at 531 nm afforded emission with a λmax at 580 nm, as expected for the formation of compound 2, which was also monitored by HPLC-MS.

The target of series [3] is T1, TrxR1 from rat liver (Rattus norvegicus, UniProt O89049).
T1 construct: from tissue; host or cells: rat liver
T1 sequence (O89049 1-499): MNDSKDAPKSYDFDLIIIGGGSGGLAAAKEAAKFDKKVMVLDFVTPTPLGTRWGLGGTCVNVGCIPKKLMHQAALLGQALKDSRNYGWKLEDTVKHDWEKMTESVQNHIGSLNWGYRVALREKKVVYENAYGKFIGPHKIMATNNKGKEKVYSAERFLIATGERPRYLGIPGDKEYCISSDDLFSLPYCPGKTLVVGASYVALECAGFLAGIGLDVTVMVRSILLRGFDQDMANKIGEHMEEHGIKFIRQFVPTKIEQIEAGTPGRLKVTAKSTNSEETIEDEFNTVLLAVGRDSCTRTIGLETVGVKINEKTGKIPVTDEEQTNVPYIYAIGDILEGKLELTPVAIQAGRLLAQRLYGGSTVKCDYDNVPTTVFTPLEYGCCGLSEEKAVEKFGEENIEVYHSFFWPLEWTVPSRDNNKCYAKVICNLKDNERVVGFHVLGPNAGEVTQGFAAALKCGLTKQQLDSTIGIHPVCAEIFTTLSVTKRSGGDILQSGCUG
Kind of series: TrxR1 enzymatic assay and kinetic study (fluorescence increase, NADPH depletion). Format: biochemical. The protocol:
Enzymatic assays were carried out using TrxR1 from rat liver in the presence of 20 μM probe 1, 10 mM EDTA, 0.2 mg/mL BSA, and 0.24 mM NADPH in phosphate buffer (100 mM, pH 7.4). This solution was pipetted into four different wells in a 96-well plate. 0.03, 0.06 and 0.12 units of TrxR1 were added to different reaction mixtures. Control experiments were set up by omitting either probe 1, NADPH or TrxR1 from the mixtures. After all the reagents had been mixed, the wells were immediately monitored for change in fluorescence (λex=531 nm; λem=580 nm) and NADPH absorbance (λabs,max 340 nm). TrxR1 activity was monitored via fluorescence emission increase of probe 1 (λex=531 nm; λem=580 nm) as well as the depletion of NADPH (λabs=340 nm) upon incubation. Reactions were monitored in black 96-well plates with clear bottoms using a fluorescence plate reader. NADPH and TrxR1 were both required for the conversion of probe 1 to compound 2 and the concomitant turn-on emission (FIG. 2). […] The proposed mechanism for the reaction of probe 1 in the presence of TrxR1 and NADPH is shown in Scheme 7. Nucleophilic attack of the diselenide occurs through the TrxR1 […] residue. The selenolate formed attacks the carbamate carbonyl, and an oxaselenolanone heterocycle and the fluorescent probe 2 are released.
Kinetic studies were carried out for six reaction mixtures with varying amounts (1-20 μM) of probe 1 over 20 min. Reaction mixtures were made with concentrations of: TrxR1 0.12 units, 100 mM phosphate buffer, pH 7.4; 10 mM EDTA, 0.2 mg/mL BSA and 0.24 mM NADPH. 1 was added at different concentrations in the reaction mixture: 20 μM, 10 μM, 5 μM, 3 μM, 1 μM and 0 μM. The reaction was monitored through the change in fluorescence (λex=531 nm; λem=580 nm) and a fluorescence vs time graph was plotted for each substrate concentration (FIG. 3). […] The fluorescence data also was plotted as a reaction rate vs substrate concentration graph (FIG. 4).

The nature of series [4]: Selectivity against other biological thiols and ions (fluorescence response). Format: biochemical. The following applies: 20 μM probe, 20 minutes; 100 μM Na2S, Na2SO3, Na2SO4, Na2S2O3, Hcy, Cys or 1 mM GSH; phosphate buffer pH 7.4. The protocol:
The selectivity of TrxR1 for probe 1 was evaluated against other biological thiols and ions. Probe 1, at a concentration of 20 μM, was incubated for 20 minutes with 0.12 units TrxR1, 100 μM Na2S, 100 μM Na2SO3, 100 μM Na2SO4, 100 μM Na2S2O3, 100 μM homocysteine (Hcy), 100 μM cysteine (Cys), or 1 mM glutathione (GSH) in 100 mM phosphate buffer, pH 7.4; 10 mM EDTA, 0.2 mg/mL BSA and 0.24 mM NADPH.

The test system of series [5] is A375 melanoma cell line. The series can be described thus: MTS cytotoxicity assay (CellTiter 96 Aqueous One Solution). The following applies: Homo sapiens, A-375, A375 cells. Format: cell-based. The protocol: (§1) MTS cytotoxicity assays for probe 1 were carried out using the CellTiter 96® Aqueous One Solution Cell Proliferation Assay (Promega Corporation, Madison, WI), with A375 and SK-MEL-5 melanoma cell lines. The following treatment groups were made:
(§2) The IC50 is the probe concentration required to kill 50% of the cells in the specified time period.

For series [6], the system named is SK-MEL-5 melanoma cell line. The description is as above. The class given is cell-based. The following applies: Homo sapiens, SK-MEL-5 cells. The procedure: as §1, §2
Where [7] appears, read: equimolar DTT, 0.3% DMSO, 0.2% NP-40, 1 mM EDTA, 50 mM Tris buffer, pH 7.4.

Usually Km stands for the substrate concentration at which the rate is half of its maximum. What is called pIC50 is −log10 of the IC50, conventionally taken in molar units. A lower pIC50 goes with a high IC50. For `COc1cccc2ccc3c(c12)Oc1cc(NC(=O)OCC[Se][Se]CCO)ccc1C31OC(=O)c2ccccc21` (stereo not drawn) [Probe 1], the “λmax, abs (nm)” value in series [1] stood at 531 nm. Also, in series [1], the “λmax, em (nm)” value amounted to 580 nm. For the same compound, in series [2] (10 μM DTT, Tris buffer pH 7.4, excitation at 531 nm, formation of compound 2), the “Emission λmax after addition of DTT” value is recorded as 580 nm. The “Colour change of solution with DTT” value in series [2] (setting [7]) is given as “colorless to red”. Moreover, the “Fluorescence turn-on response with DTT” value in series [2] (setting [7]) was “instantaneous turn-on response”. In series [3] (20 μM probe, 0.12 units TrxR, 0.24 mM NADPH, phosphate buffer pH 7.4, λex 531 nm, λem 580 nm), the “Time at which fluorescence intensity began to plateau” value came out at 20 min. Also, in series [3] (20 μM probe, control omitting NADPH or TrxR1), the “Fluorescence in the absence of NADPH or TrxR” value is recorded as “no fluorescence was observed”. In series [3] (1-20 μM probe, 0.12 units TrxR1, 0.24 mM NADPH, 100 mM phosphate buffer pH 7.4, 20 min), the Km was 15.9 µM. The “Change in fluorescence with other thiols and ions compared with TrxR1” value in series [4] was “None afforded a significant change in fluorescence”. Besides, the pIC50 in series [5] (24 hours) was 5.45; in series [5] (48 hours), 5.65; in series [5] (72 hours) it was 5.59; in series [6] (24 hours), 5.32; in series [6] (48 hours) it was 5.51; in series [6] (72 hours), 5.64.

(Values after patent US12358923B2, “Seminaphthofluorophore-selenium probes for thioredoxin reductase” (Portland State University, priority 2019, dated 2025).)
